Reference: US20020177180A1, “pH-indicator based assay for selective enzymes” (ThermoGen, Inc., priority 1998, published 2002)

Tests used:
Format in all cases: biochemical
ThermoGen esterases = assay: Initial screening (pH indicator): esters as substrates of the ThermoGen esterases, statements for the esterases as a group; settings: for quality as substrate of the ThermoGen esterases (in words), enantiomer pairs: enantiomer pair library, Tables 8-12; for estimated enantioselectivities with ThermoGen esterases (in words): ratio of initial rates of enantiomer pairs; for quality as substrate of the ThermoGen esterases (in words): esters 1-31, initial screening
Experimental: (§1) Initial screening measures the initial rate of hydrolysis of different esters. The rate of reaction was measured by monitoring the release of protons using a pH indicator, 4-nitrophenol. In this assay, the yellow color of the phenoxide disappears as the reaction proceeds. The amount of ester hydrolyzed can be measured quantitatively, as is known in the art.
(§2) To survey the substrate selectivity of the ThermoGen esterases, the ability of the enzymes to hydrolyze thirty-one different commercially-available esters, Scheme 1 (FIG. 9, Table 6).
To evaluate the potential of the ThermoGen esterases for enantioselective reactions, the initial rates of hydrolysis of the esterases were measured using twenty-one pairs of enantiomers, Scheme 2, FIG. 10 and Tables 8-12. The ratio of these initial rates is an estimated enantioselectivity.

esterase E011 = assay: Initial screening of ThermoGen esterases toward esters 1-31 (pH indicator), specific activity; settings: 1 mM substrate, pH 7.2, 7 vol % acetonitrile, 25° C.
Experimental: as §1

esterase E015 = assay: as above; settings: 1 mM substrate, pH 7.2, 7 vol % acetonitrile, 25° C.
Experimental: as §1, §2

esterase E014 = assay: as above; settings: 1 mM substrate, pH 7.2, 7 vol % acetonitrile, 25° C.
Experimental: as §1, §2

esterase E006 = assay: as above; settings: 1 mM substrate, pH 7.2, 7 vol % acetonitrile, 25° C.
Experimental: as §1, §2

esterase E016 = assay: as above; settings: 1 mM substrate, pH 7.2, 7 vol % acetonitrile, 25° C.
Experimental: as §1, §2

esterase E020 = assay: as above; settings: 1 mM substrate, pH 7.2, 7 vol % acetonitrile, 25° C.
Experimental: as §1, §2

esterase E012 = assay: as above; settings: 1 mM substrate, pH 7.2, 7 vol % acetonitrile, 25° C.
Experimental: as §1, §2

| SMILES | quality as substrate of the ThermoGen esterases (in words), enantiomer pairs (ThermoGen esterases) | estimated enantioselectivities with ThermoGen esterases (in words) (ThermoGen esterases) | Specific activity, esterase E011 (esterase E011) | quality as substrate of the ThermoGen esterases (in words) (ThermoGen esterases) | Specific activity, esterase E015 (esterase E015) | Specific activity, esterase E014 (esterase E014) | Specific activity, esterase E006 (esterase E006) | Specific activity, esterase E016 (esterase E016) | Specific activity, esterase E020 (esterase E020) | Specific activity, esterase E012 (esterase E012) |
| --- | --- | --- | --- | --- | --- | --- | --- | --- | --- | --- |
| CCCC(=O)OCC1COC(C)(C)O1 (single isomer, unassigned) [Substrate 32] | best substrates | – | – | – | – | – | – | – | – | – |
| O=C(OCC1CO1)c1ccc([N+](=O)[O-])cc1 (single isomer, unassigned) [Substrate 33] | best substrates | – | – | – | – | – | – | – | – | – |
| CC1(COC(=O)c2ccc([N+](=O)[O-])cc2)CO1 (single isomer, unassigned) [Substrate 34] | – | estimated enantioselectivities above two with several esterases | – | – | – | – | – | – | – | – |
| CCCCCCCC(=O)OCC1COC(C)(C)O1 (single isomer, unassigned) [Substrate 35] | best substrates | – | – | – | – | – | – | – | – | – |
| CCCC(=O)OC(C)c1ccccc1 (single isomer, unassigned) [Substrate 38] | – | higher estimated enantioselectivities with most ThermoGen esterases | – | – | – | – | – | – | – | – |
| COC(=O)C(C)CO (single isomer, unassigned) [Substrate 39] | poorest substrates | – | – | – | – | – | – | – | – | – |
| COC(=O)CC(C)O (single isomer, unassigned) [Substrate 40] | poorest substrates | – | – | – | – | – | – | – | – | – |
| COC(=O)C1COC(C)(C)O1 (single isomer, unassigned) [Substrate 43] | – | estimated enantioselectivities above two with several esterases | – | – | – | – | – | – | – | – |
| COC(=O)C(C)CBr (single isomer, unassigned) [Substrate 44] | – | estimated enantioselectivities above two with several esterases | – | – | – | – | – | – | – | – |
| COC(=O)C(C)Cl (single isomer, unassigned) [Substrate 45] | – | higher estimated enantioselectivities with most ThermoGen esterases | – | – | – | – | – | – | – | – |
| COC(=O)C(O)c1ccccc1 (single isomer, unassigned) [Substrate 46] | poorest substrates | – | – | – | – | – | – | – | – | – |
| COC(=O)C(C)N (single isomer, unassigned) [Substrate 47] | poorest substrates | estimated enantioselectivities above two with several esterases | – | – | – | – | – | – | – | – |
| CCOC(=O)C1CCC(=O)N1 (single isomer, unassigned) [Substrate 48] | poorest substrates | – | – | – | – | – | – | – | – | – |
| COC(=O)C(N)Cc1c[nH]c2ccccc12 (single isomer, unassigned) [Substrate 50] | – | estimated enantioselectivities above two with several esterases | – | – | – | – | – | – | – | – |
| O=C1CCC(CO)O1 (single isomer, unassigned) [Substrate 51] | poorest substrates | – | – | – | – | – | – | – | – | – |
| CC1(C)COC(=O)C1O (single isomer, unassigned) [Substrate 52] | poorest substrates | – | – | – | – | – | – | – | – | – |
| CC(C)(C)CC(=O)Oc1ccc2nc3ccc(=O)cc-3oc2c1 [Substrate 10, Resorufin t-butylacetate (resorufin 3,3-dimethylbutyrate), reference compound] | – | – | 2.7 mmol ester hydrolyzed/min/mg protein | good substrate for several esterases | 5.9 mmol ester hydrolyzed/min/mg protein | 1.0 mmol ester hydrolyzed/min/mg protein | 5.7 mmol ester hydrolyzed/min/mg protein | 50 mmol ester hydrolyzed/min/mg protein | 14 mmol ester hydrolyzed/min/mg protein | 22 mmol ester hydrolyzed/min/mg protein |
| C=COC(=O)C(C)(C)C [Substrate 11] | – | – | 0.80 mmol ester hydrolyzed/min/mg protein | poor substrate for all the esterases | 4.0 mmol ester hydrolyzed/min/mg protein | 0.40 mmol ester hydrolyzed/min/mg protein | 0.52 mmol ester hydrolyzed/min/mg protein | 20 mmol ester hydrolyzed/min/mg protein | 1.2 mmol ester hydrolyzed/min/mg protein | 16 mmol ester hydrolyzed/min/mg protein |
| CCCC(=O)OCC [Substrate 13] | – | – | 0.71 mmol ester hydrolyzed/min/mg protein | reacted much slower | 2.0 mmol ester hydrolyzed/min/mg protein | 0.40 mmol ester hydrolyzed/min/mg protein | 1.1 mmol ester hydrolyzed/min/mg protein | 3.5 mmol ester hydrolyzed/min/mg protein | 3.0 mmol ester hydrolyzed/min/mg protein | <2 mmol ester hydrolyzed/min/mg protein |
| CCOC(=O)C(F)(F)F [Substrate 17] | – | – | 2.7 mmol ester hydrolyzed/min/mg protein | best substrates | 190 mmol ester hydrolyzed/min/mg protein | 1.4 mmol ester hydrolyzed/min/mg protein | 1.7 mmol ester hydrolyzed/min/mg protein | 1500 mmol ester hydrolyzed/min/mg protein | 0.35 mmol ester hydrolyzed/min/mg protein | 1200 mmol ester hydrolyzed/min/mg protein |
| COC(=O)CO [Substrate 20] | – | – | <0.1 mmol ester hydrolyzed/min/mg protein | usually poor substrates | <0.1 mmol ester hydrolyzed/min/mg protein | <0.1 mmol ester hydrolyzed/min/mg protein | 0.11 mmol ester hydrolyzed/min/mg protein | <2 mmol ester hydrolyzed/min/mg protein | <0.2 mmol ester hydrolyzed/min/mg protein | <2 mmol ester hydrolyzed/min/mg protein |
| COC(=O)C(O)c1ccccc1 (centres unmarked) [Substrate 21] | – | – | 0.04 mmol ester hydrolyzed/min/mg protein | usually poor substrates | <0.1 mmol ester hydrolyzed/min/mg protein | <0.1 mmol ester hydrolyzed/min/mg protein | <0.1 mmol ester hydrolyzed/min/mg protein | <2 mmol ester hydrolyzed/min/mg protein | <0.2 mmol ester hydrolyzed/min/mg protein | <2 mmol ester hydrolyzed/min/mg protein |
| CC(=O)Oc1ccccc1 [Substrate 26] | – | – | 270 mmol ester hydrolyzed/min/mg protein | best substrates | 320 mmol ester hydrolyzed/min/mg protein | 150 mmol ester hydrolyzed/min/mg protein | 300 mmol ester hydrolyzed/min/mg protein | 190 mmol ester hydrolyzed/min/mg protein | 390 mmol ester hydrolyzed/min/mg protein | 30 mmol ester hydrolyzed/min/mg protein |
| CCC(C)OC(C)=O (centres unmarked) [Substrate 28] | – | – | 0.19 mmol ester hydrolyzed/min/mg protein | – | 0.29 mmol ester hydrolyzed/min/mg protein | <0.1 mmol ester hydrolyzed/min/mg protein | 0.16 mmol ester hydrolyzed/min/mg protein | <2 mmol ester hydrolyzed/min/mg protein | 2.1 mmol ester hydrolyzed/min/mg protein | <2 mmol ester hydrolyzed/min/mg protein |
| CCCC(=O)OCC(COC(=O)CCC)OC(=O)CCC [Substrate 29] | – | – | 450 mmol ester hydrolyzed/min/mg protein | – | 550 mmol ester hydrolyzed/min/mg protein | 280 mmol ester hydrolyzed/min/mg protein | 370 mmol ester hydrolyzed/min/mg protein | 130 mmol ester hydrolyzed/min/mg protein | 560 mmol ester hydrolyzed/min/mg protein | 37 mmol ester hydrolyzed/min/mg protein |
| CCCC(=O)OCC1CO1 (centres unmarked) [Substrate 30] | – | – | 1.2 mmol ester hydrolyzed/min/mg protein | – | 3.2 mmol ester hydrolyzed/min/mg protein | 0.53 mmol ester hydrolyzed/min/mg protein | 3.5 mmol ester hydrolyzed/min/mg protein | 14 mmol ester hydrolyzed/min/mg protein | 2.0 mmol ester hydrolyzed/min/mg protein | 3.4 mmol ester hydrolyzed/min/mg protein |
| CC(=O)OC1CC(C)CCC1C(C)C (centres unmarked) [Substrate 36] | – | estimated enantioselectivities above two with several esterases | – | – | – | – | – | – | – | – |
